# Test results: ChEMBL document CHEMBL1201862, “PubChem BioAssay data set” (2004)
#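 Tested at 5 concentrations; 48 h exposure; 96-well plates; endpoints linearly interpolated, else capped at highest concentration. GI50: concentration for 50% inhibition of growth.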 Active and inactive are the calls of the source. No stated cut-off is given here; in the data, active = GI50 up to about 1.1 µM and inactive = higher.
# Tests used:
# Test in all cases: growth of human tumour cells (NCI), 48 h
# NCI/ADR-RES = system: NCI/ADR-RES
# DU-145 = system: DU-145
# MDA-MB-435 = system: MDA-MB-435
# DMS-273 = system: DMS-273
# HOP-18 = system: HOP-18
# M19-MEL = system: M19-MEL
# XF498 = system: XF498
# LXFL 529 = system: LXFL 529
SMILES,GI50 (NCI/ADR-RES),GI50 (DU-145),GI50 (MDA-MB-435),GI50 (DMS-273),GI50 (HOP-18),GI50 (M19-MEL),GI50 (XF498),GI50 (LXFL 529)
c1ccc2cc(-c3cc(-c4cc(-c5ccc6ccccc6c5)on4)no3)ccc2c1,> 100 µM (inactive),> 100 µM (inactive),> 100 µM (inactive),,,,,
CCCCSCc1nc2nc(Cl)c(Cl)nc2[nH]1,27 µM (inactive),32.5 µM (inactive),33.5 µM (inactive),,,,,
Nc1ccc(S(=O)(=O)c2ccc(NC(=O)c3cccnc3)cc2)cc1,> 100 µM (inactive),> 100 µM (inactive),> 100 µM (inactive),,,,,
CCOc1cc2c(cc1O)/C(=N\N)C[C@@H]1[C@@H]2CC[C@]2(C)[C@@H](O)CC[C@@H]12,3.86 µM (inactive),8.73 µM (inactive),0.281 µM (active),,,,,
NS(=O)(=O)c1ccc(NC2(C(=O)O)CCCC2)cc1,> 100 µM (inactive),> 100 µM (inactive),> 100 µM (inactive),,,,,
O=C(CN1CCCCC1)Nc1ccc2sc3ccccc3c(=O)c2n1,7.82 µM (inactive),20.3 µM (inactive),13.1 µM (inactive),,,,,
CC(=O)O[C@H]1CN(S(=O)(=O)c2ccc(C)cc2)C[C@@H]1C1CCCCC1,19.5 µM (inactive),32.9 µM (inactive),27.9 µM (inactive),,,,,
C=C1C(=O)O[C@H]2C1[C@H](OC(=O)/C(C)=C\COC(C)=O)C[C@]1(CO1)[C@@H]1[C@H](O)[C@H]3O[C@@]3(C)[C@@H]12 (stereo not given in full),21.4 µM (inactive),,,26.3 µM (inactive),20 µM (inactive),15.7 µM (inactive),19.3 µM (inactive),
C=C1C(=O)OC2/C=C(\C)CC(O)/C=C(/CO)CC(OC(=O)/C(C)=C/C)C12 (stereo not given),130 µM (inactive),,,24 µM (inactive),26.3 µM (inactive),23 µM (inactive),12.2 µM (inactive),
Nc1ccc(S(=O)(=O)Nc2nc3ccccc3nc2N2CCCCCC2)cc1,30.8 µM (inactive),30.9 µM (inactive),18.1 µM (inactive),,,,,
CSc1nn(C)cc2ncnc1-2,> 100 µM (inactive),> 100 µM (inactive),> 100 µM (inactive),,,,,
O=C1Nc2c(Cl)cccc2/C1=N/Nc1ccccc1[N+](=O)[O-],11.5 µM (inactive),16.4 µM (inactive),28.2 µM (inactive),,,,,
CCOC(=O)n1c2ccccc2c2c(O)c(OC)c3c(c21)C(=O)NC3=O,28.6 µM (inactive),30 µM (inactive),60 µM (inactive),,,,,
CCOc1c(OC)cc(CNNc2nccs2)cc1OC,70.6 µM (inactive),15 µM (inactive),54.2 µM (inactive),,,,,
COc1cc(/C=C2\C[C@H]3[C@@H]4CC=C5C[C@@H](O)CC[C@]5(C)[C@H]4CC[C@]3(C)[C@H]2O)cc(OC)c1OC,12.9 µM (inactive),18.3 µM (inactive),20 µM (inactive),,,,,
CSC(=S)N/N=C(\C)c1cccc(C)n1,1.36 µM (inactive),0.845 µM (active),1.35 µM (inactive),,,,,
O=C(CCC1OCCO1)Nc1cc(NCc2ccccc2)ccc1OCc1ccccc1,43.1 µM (inactive),50.5 µM (inactive),23.6 µM (inactive),,,,,
O=C1CCCN1C(=O)CS(=O)(=O)c1ccccc1,> 100 µM (inactive),> 100 µM (inactive),> 100 µM (inactive),,,,,
CC(=O)OCC1OC(O[C@@H]2C[C@H]3C(C)(C)[C@@H](OC(C)=O)CC[C@]3(C)[C@H]3CC[C@]45C[C@]4(CC[C@H]5[C@@H](C)C[C@@H](O)[C@H](O)C(C)(C)F)[C@@]32C)C(O)C(O)C1O (stereo not given in full),10.5 µM (inactive),> 100 µM (inactive),8.04 µM (inactive),,,,,
Cc1cccc(C)c1NC(=O)/C(Cc1nc2ccc([N+](=O)[O-])cc2nc1O)=N\NC(N)=O,85.5 µM (inactive),> 100 µM (inactive),98.2 µM (inactive),,,,,

SMILES,GI50 (NCI/ADR-RES),GI50 (DU-145),GI50 (MDA-MB-435),GI50 (DMS-273),GI50 (HOP-18),GI50 (M19-MEL),GI50 (XF498),GI50 (LXFL 529)
Nc1ccc(-c2ncc3cc(-c4cccc(-c5cc6cnc(-c7ccc(N)cc7)nc6c6ccccc56)c4)c4ccccc4c3n2)cc1,> 100 µM (inactive),> 100 µM (inactive),> 100 µM (inactive),,,,,
Nc1cccc(C#Cc2cccc(C#Cc3cccc(N)n3)n2)n1,> 100 µM (inactive),> 100 µM (inactive),89.9 µM (inactive),,,,,
O=C1C(c2ccccc2)=[N+]([O-])c2cc([N+](=O)[O-])ccc21,,,,,88.1 µM (inactive),17.7 µM (inactive),24 µM (inactive),
CCN1CCC(O)(c2ccc([N+](=O)[O-])cc2)C(C(=O)c2ccc([N+](=O)[O-])cc2)C1 (stereo not given),53.8 µM (inactive),17.7 µM (inactive),20.5 µM (inactive),,,,,
COc1ccc(/C=N/NC(=O)c2ccccc2Nc2ccccc2C(=O)N/N=C/c2ccc(OC)cc2)cc1,> 100 µM (inactive),> 100 µM (inactive),> 100 µM (inactive),,,,,
COC(=O)/C(=N/NC(C)(C)C)C(C(=O)OC)C(=O)C(=O)Nc1nc2ccc([N+](=O)[O-])cc2s1 (stereo not given),,,,,,> 100 µM (inactive),> 100 µM (inactive),> 100 µM (inactive)
N/C(=N\N=C\c1cc2ccccc2s1)c1cnccn1,> 100 µM (inactive),> 100 µM (inactive),> 100 µM (inactive),,,,,
Cc1cn(C2CC(O)C(COC(=O)NCCC(F)(F)C(F)(F)C(F)(F)C(F)(F)F)O2)c(=O)[nH]c1=O (stereo not given),,> 100 µM (inactive),75.2 µM (inactive),,,,,
Nc1nc(SCCC/C=C/B(O)O)nc2c1ncn2C1OC(CO)C(O)C1O (stereo not given),,,,> 243 µM (inactive),,> 243 µM (inactive),> 243 µM (inactive),> 243 µM (inactive)
Cn1nc2ccc3nccc(NCCNCCCl)c3c2n1,,,,> 100 µM (inactive),,> 100 µM (inactive),> 100 µM (inactive),> 100 µM (inactive)
O=S1(=O)OCCOS(=O)(=O)C1Cl,,,,> 100 µM (inactive),> 100 µM (inactive),> 100 µM (inactive),,> 100 µM (inactive)
COc1c(Cl)nc2ccccc2c1N=[N+]=[N-],,> 100 µM (inactive),> 100 µM (inactive),,,,,
CN(Cc1cnc2c(N)nc(N)nc2n1)c1ccc(Cl)cc1,16.2 µM (inactive),> 100 µM (inactive),> 100 µM (inactive),,,,,
COc1ccc(C(=O)N2CCc3c([nH]c4ccccc34)C2C(=O)O)o1 (stereo not given),> 10 µM (inactive),> 10 µM (inactive),> 10 µM (inactive),,,,,
COc1ccc(/C(=N/O)C(c2ccc(OC)cc2)C2C(=O)Oc3ccccc32)cc1 (stereo not given),,,,,> 100 µM (inactive),68.5 µM (inactive),,36.3 µM (inactive)
COc1cc2ccc1-c1cc(ccc1O)CC1c3cc4c(cc3CCN1C)Oc1c(OC)cc3c(c1O4)C(C2)N(C)CC3 (stereo not given),,,,1.78 µM (inactive),,1.88 µM (inactive),1.92 µM (inactive),1.84 µM (inactive)
O=C1c2ccccc2-c2ccc(O)cc21,31.8 µM (inactive),20.1 µM (inactive),20.2 µM (inactive),,,,,
N#CC(c1nc2ccccc2nc1Cl)S(=O)(=O)c1ccccc1 (stereo not given),,,,> 100 µM (inactive),,> 100 µM (inactive),37.6 µM (inactive),46.6 µM (inactive)
Cc1noc(/N=C2\C=C(O)C(=O)c3ccccc32)c1C,0.505 µM (active),11.4 µM (inactive),0.126 µM (active),,,,,
CC(C)(C)c1cc(S(=O)(=O)O)c2oc(-c3ccccc3)cc(=O)c2c1,> 100 µM (inactive),> 100 µM (inactive),> 100 µM (inactive),,,,,

SMILES,GI50 (NCI/ADR-RES),GI50 (DU-145),GI50 (MDA-MB-435),GI50 (DMS-273),GI50 (HOP-18),GI50 (M19-MEL),GI50 (XF498),GI50 (LXFL 529)
C=C(C)CCC1CC=[N+]([O-])OC1C(C)(C)C (stereo not given),27.3 µM (inactive),37.4 µM (inactive),16.1 µM (inactive),,,,,
CCCC/C(C)=N/NC(N)=S,,,,,> 100 µM (inactive),> 100 µM (inactive),,> 100 µM (inactive)
COC(=O)CP1(=O)OC2C(C3CCC2(C)C3(C)C)N1c1cc(C(F)(F)F)cc(C(F)(F)F)c1 (stereo not given),20.6 µM (inactive),31.3 µM (inactive),22.1 µM (inactive),,,,,
Nc1n[n+](-c2ccccc2)no1,,,,33.2 µM (inactive),,46.2 µM (inactive),,5.26 µM (inactive)
CCOC(=O)[C@@]12CCC(C1=O)[C@](C)(O)C[C@@H]2c1ccccc1,29 µM (inactive),85.9 µM (inactive),8.07 µM (inactive),,,,,
Nc1ncnc2c1nnn2C1C=CC(CP(=O)(O)O)C1 (stereo not given),> 100 µM (inactive),> 100 µM (inactive),> 10 µM (inactive),,,,,
COc1cc([N+](=O)[O-])ccc1NC(=O)C(F)(F)F,> 100 µM (inactive),> 100 µM (inactive),> 100 µM (inactive),,,,,
COc1cc([N+](=O)[O-])c(S(=O)(=O)O)cc1N,> 100 µM (inactive),> 100 µM (inactive),> 100 µM (inactive),,,,,
Cn1cnc(N2CCCC2)c(C#N)c1=S,> 100 µM (inactive),> 100 µM (inactive),> 100 µM (inactive),,,,,
C1=CC=C2NCCSCC/N=C3/C=CC=CC=C3NCCSCC/N=C\2C=C1,,,,> 100 µM (inactive),> 100 µM (inactive),> 100 µM (inactive),,> 100 µM (inactive)
O=c1cc(-c2ccccc2)oc2cc(OCCCOc3ccc4c(=O)cc(-c5ccccc5)oc4c3)ccc12,,,,> 100 µM (inactive),> 100 µM (inactive),> 100 µM (inactive),> 100 µM (inactive),> 100 µM (inactive)
COc1cc(C(=O)C2C(=O)c3ccccc3C2C2(O)c3ccccc3CC2C(O)c2cc(OC)c(OC)c(OC)c2)cc(OC)c1OC (stereo not given),> 100 µM (inactive),> 100 µM (inactive),> 100 µM (inactive),,,,,
C=CCC1C2CCC(O[Si](C(C)C)(C(C)C)C(C)C)(C(C(=O)OC)C2)C1O (stereo not given),> 100 µM (inactive),> 100 µM (inactive),53.7 µM (inactive),,,,,
NCCCn1c2ccccc2c2c3c(c4c(c21)CCC(O)CC4)C(=O)NC3=O (stereo not given),13 µM (inactive),3.7 µM (inactive),1.53 µM (inactive),,,,,
COC(=O)CC(C(C(=O)OCc1ccccc1)C(C)O)N1C(=O)OCC1c1ccccc1 (stereo not given),,,,66.1 µM (inactive),,69.2 µM (inactive),24.1 µM (inactive),56.1 µM (inactive)
Brc1ccc2c(-c3csc(-c4c[nH]c5cc(Br)ccc45)n3)c[nH]c2c1,16 µM (inactive),19.5 µM (inactive),5.27 µM (inactive),,,,,
CCCC(=O)Oc1cc(OC(=O)CCC)c2c(C)cc(=O)oc2c1,> 100 µM (inactive),> 100 µM (inactive),58.6 µM (inactive),,,,,
COc1cc2cc(C(=O)N3CC(CCl)c4c3cc(NC(=O)OCc3ccc([N+](=O)[O-])cc3)c3ccccc43)[nH]c2c(OC)c1OC (stereo not given),3.67 µM (inactive),0.108 µM (active),> 100 µM (inactive),,,,,
